Entries after “also recorded” stand apart in the source; their conditions may differ. Where two headings read alike, the source gives them in different places.
Columns and labels:
[1] = test system: brain eCB, AA and PG levels; assay: Brain eCB, NAE, MAG, AA and PG levels after i.p. injection; format: in vivo, mice; conditions: 10 mg/kg i.p., 2 hours
Experimental: 5-7 week old male ICR mice were used for all experiments with the exception of knockout animals (Harlan, Indianapolis, Ind., United States of America). Mice were housed 5 per […]. All behavioral tests were conducted during the light cycle between 0900 and 1700. KO and WT littermate controls for FAAH^(−/−) and COX-2^(−/−) mice were derived from heterozygote breeding pairs, bred and genotyped as described in Uddin et al., 2011. CB1^(−/−) mice were bred from homozygote breeding pairs and genotyped as described in Pan et al., 2008. Mice were group-housed on a 12:12 light-dark cycle (lights on at 06:00), with food and water available ad libitum. All animal studies were approved by the Vanderbilt Institutional Animal Care and Use Committee and conducted in accordance with the Guide for the Care and Use of Laboratory Animals of the United States National Institutes of Health.
(§1) Mice were sacrificed by cervical dislocation and decapitation. The brain, lungs, liver, stomach, small intestines, and kidneys were then rapidly removed and frozen on a metal block in dry ice. The tissue was then placed in a tube and stored at −80° C. until extraction, usually one day after harvesting. For PG and eCB analysis, lipid extraction from tissue was carried out as described in Patel et al., 2009.
(§2) Analytes were quantified using LC-MS/MS on a Quantum triple-quadrupole mass spectrometer in positive-ion mode using selected reaction monitoring. Detection of eicosanoids was performed as described in Kingsley & Marnett, 2007. For fatty acid analysis the mobile phases used were 80 μM AgOAc with 0.1% (v/v) acetic acid in H2O (solvent A) and 120 μM AgOAc with 0.1% (v/v) acetic acid in MeOH (solvent B). The analytes were eluted using a gradient from 20% A to 99% B over 5 minutes. The transitions used were m/z 300→282 for PEA, m/z 328→310 for SEA, m/z 434→416 for OEA, m/z 456→438 for AEA, m/z 464→446 for AEA-d8, m/z 331→257 for 2-PG, m/z 359→285 for 2-SG, m/z 463→389 for 2-OG, m/z 485→411 for 2-AG, m/z 493→419 for 2-AG-d8, m/z 519→409 for AA, and m/z 527→417 for AA-d8. Peak areas for the analytes were normalized to the appropriate internal standard and then normalized to tissue mass for in vivo samples.

[2] = test system: peripheral tissue eCB, NAE, MAG and PG levels; assay: Peripheral tissue NAE, MAG and PG levels after i.p. injection; format: in vivo, mice; conditions: liver
Experimental: as §1
as §2, with “samples. […]” for “samples.”

ICR mice [3] = assay: Novel open field test; format: in vivo; conditions: 10 mg/kg
Experimental: Animals were tested for open-field activity in a novel environment one hour after i.p. injection of compound as described in Sumislawski et al., 2011. Briefly, one-hour sessions were performed using automated experimental chambers (27.9 27.9 cm; MEDOFA-510; MED Associates, Ga., Vermont, United States of America) under constant illumination within a sound-attenuated room. Analysis of open field activity was performed using Activity Monitor v5.10 (MED Associates).

ICR mice [4] = assay: Light-dark box; format: in vivo; conditions: 10 mg/kg
ICR mice [5] = assay: Elevated plus-maze (EPM); format: in vivo; conditions: 10 mg/kg
COX-2 = target: T1, COX-2 (Mus musculus, UniProt Q05769); assay: Inhibition of COX-2 oxygenation by acetaminophen and its metabolites; format: biochemical
T1 sequence (Q05769 18-604): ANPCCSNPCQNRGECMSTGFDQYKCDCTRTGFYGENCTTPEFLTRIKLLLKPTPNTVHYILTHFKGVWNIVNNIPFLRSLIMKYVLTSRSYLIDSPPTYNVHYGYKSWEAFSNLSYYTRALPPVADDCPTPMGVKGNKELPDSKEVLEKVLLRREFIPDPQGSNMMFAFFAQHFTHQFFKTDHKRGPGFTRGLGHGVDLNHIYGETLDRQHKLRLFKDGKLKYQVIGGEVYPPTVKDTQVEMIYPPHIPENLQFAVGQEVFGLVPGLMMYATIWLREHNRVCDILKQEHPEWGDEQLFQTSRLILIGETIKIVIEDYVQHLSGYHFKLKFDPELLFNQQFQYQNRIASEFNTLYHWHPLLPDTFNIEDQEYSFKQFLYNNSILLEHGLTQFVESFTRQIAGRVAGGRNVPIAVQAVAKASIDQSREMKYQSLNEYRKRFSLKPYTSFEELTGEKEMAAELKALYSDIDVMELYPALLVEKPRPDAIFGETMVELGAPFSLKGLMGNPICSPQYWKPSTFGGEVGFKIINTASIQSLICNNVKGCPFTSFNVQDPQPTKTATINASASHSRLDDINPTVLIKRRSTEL

[6] = target: T2, COX-2 in lipopolysaccharide-activated RAW264.7 cells (Mus musculus, UniProt Q05769); assay: 2-AG oxygenation by lipopolysaccharide-activated RAW264.7 cells; format: cell-based
T2 construct: endogenous in cells; host or cells: RAW 264.7 macrophages stimulated with LPS (and GM-CSF / interferon γ where described)
T2 sequence (Q05769 18-604): T1 sequence (Q05769 18-604)

ICR mice [7] = assay: Rectal temperature, catalepsy and hot plate antinociception; conditions: 10 mg/kg i.p.
[8] = target: T3, COX-2 in RAW 264.7 macrophages (Mus musculus, UniProt Q05769); assay: RAW cells assay: oxygenation of 2-AG and AA; format: cell-based
T3 construct: endogenous in cells; host or cells: RAW 264.7 macrophages stimulated with LPS (and GM-CSF / interferon γ where described)
T3 sequence (Q05769 18-604): T1 sequence (Q05769 18-604)
Experimental: Two hours after stimulation, varying doses of inhibitor were added to the cell media and 6 hr after stimulation the media were collected and analyzed by LC-MS-MS for prostaglandin levels.
The cells were then stimulated overnight with 20 ng/ml of granulocyte-macrophage colony-stimulating factor. The media was replaced in the morning with DMEM with GLUTAMAX® and the cells were stimulated with 100 ng/ml lipopolysaccharide and 20 units/ml interferon γ. Two hours after stimulation varying doses of inhibitor were added to the cell media and 6 hours after stimulation the media was collected and extracted in acidified ethyl acetate spiked with deuterated internal standards. The organic layer was dried down under a stream of nitrogen gas and reconstituted in 1:1 water:methanol and analyzed by LC-MS/MS for prostaglandin levels using the same instrumentation, column, solvents and conditions as described for the in vitro assay above.

purified murine COX-2 = target: T4, purified murine COX-2 (Mus musculus, UniProt Q05769); assay: Inhibition of mCOX-2 dependent oxygenation of 2-AG and AA by profens in vitro; format: biochemical; parameters: made in house; host or cells: insect cells; conditions: achiral profens; for inhibition at 10 µM: at 10 μM inhibitor, AA 5 μM, read-out: AA % Inhibition
T4 sequence (Q05769 18-604): T1 sequence (Q05769 18-604)
Experimental: Desired concentrations of inhibitor in DMSO or blank (DMSO) were incubated with mCOX-2 (40 nM) for 3 minutes in 100 mM Tris-HCl with 0.5 mM phenol, pH 8.0 at 37° C. After pre-incubation of enzyme and inhibitor, 5 μM of AA or 2-AG was added at 37° C. Thirty seconds later, the reaction was quenched with 200 μL of ice-cold ethyl acetate containing 0.5% acetic acid (v/v) and 1 μM PGE2-d4 and PGE2-G-d5. The solution was then vortexed and the aqueous layer frozen. The organic layer was removed and evaporated to near-dryness under nitrogen. The samples were reconstituted in 1:1 MeOH:H2O and chromatographed using a LUNA® C18(2) column (50 2 mm, 3 μm; Phenomenex, Torrance, Calif., United States of America). […] Analyte peak areas were normalized to the appropriate internal standard to determine the amount of product formation, and inhibition was determined by normalization to a DMSO control.

[9] = Chiral HPLC of (R)-profen-treated DRG extracts (racemization); format: in vitro ADME, mouse
From the text: A Daicel chiralpak chiral column was used in conjunction with a normal-phase HPLC gradient to separate the profen enantiomers.

[10] = In vivo mouse assay: plasma levels; parameters: species or system C57BL/6 mice
FAAH = target: T5, FAAH (Homo sapiens, UniProt O00519); conditions: in vitro; Bishay et al., 2010; cited from earlier work
T5 sequence (O00519 1-579): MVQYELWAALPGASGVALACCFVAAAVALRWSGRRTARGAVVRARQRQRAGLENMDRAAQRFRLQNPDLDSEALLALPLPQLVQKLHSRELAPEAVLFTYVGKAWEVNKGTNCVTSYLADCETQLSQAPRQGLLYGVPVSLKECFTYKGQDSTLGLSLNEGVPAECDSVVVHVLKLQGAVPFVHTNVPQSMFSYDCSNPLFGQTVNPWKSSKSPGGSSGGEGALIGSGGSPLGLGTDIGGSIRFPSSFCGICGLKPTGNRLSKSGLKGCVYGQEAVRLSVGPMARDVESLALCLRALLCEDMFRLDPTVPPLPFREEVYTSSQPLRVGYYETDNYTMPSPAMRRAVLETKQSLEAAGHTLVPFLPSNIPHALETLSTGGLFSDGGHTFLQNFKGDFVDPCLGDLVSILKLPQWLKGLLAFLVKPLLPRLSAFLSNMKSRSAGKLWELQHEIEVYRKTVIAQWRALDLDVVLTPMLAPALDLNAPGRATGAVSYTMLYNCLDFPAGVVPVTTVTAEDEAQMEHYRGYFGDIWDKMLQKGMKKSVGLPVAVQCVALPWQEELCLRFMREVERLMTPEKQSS

In the case of `O=C(Nc1cccnc1)N1CCC(Cc2cccc(Oc3ccc(C(F)(F)F)cn3)c2)CC1` [PF-3845, N-3-pyridinyl-4-[[3-[[5-(trifluoromethyl)-2-pyridinyl]oxy]phenyl]methyl]-1-piperidinecarboxamide, reference compound], the “Brain levels of NAEs other than AEA” value [1] is reported as “robustly increased”, the “Brain AEA levels” value ([1]; vs vehicle) is reported as “robustly increased” and the “Liver NAE levels” value [2] is reported as “robust increases”. For the same compound, the “Center distance travelled and center time in the open-field arena” value (ICR mice [3]) was “increased”, the Light-zone time (ICR mice [4]) was “significantly increased” and the “Number of light-zone entries” value (ICR mice [4]) was “significantly increased”. The “Overall locomotor activity in the light-dark box” value (ICR mice [4]) was “without significantly affecting”, the Open arm latency (ICR mice [5]) was “significantly reduced; also recorded: decreased” and the “Other EPM parameters (open arm time, total distance traveled)” value (ICR mice [5]) was “did not affect; also recorded: did not increase”.

In the case of `CCCCC/C=C\C/C=C\C/C=C\C/C=C\CCCC(=O)Nc1ccc(O)cc1` [AM-404, N-(4-hydroxyphenyl)arachidonoylamide], the “Selectivity for inhibition of 2-AG and AEA oxygenation compared to AA oxygenation” value (COX-2) is reported as 700 fold, the “Dissociation from COX-2” value (COX-2; in the absence of substrate) is reported as “slow” and the “Dissociation from COX-2” value (COX-2; in the presence of AA) is reported as “rapid”. It also gave an IC50 (COX-2; read-out: IC50 for inhibition of 2-AG oxygenation) of 0.097 µM and an IC50 [6] of 0.046 µM.

For `Cc1c(C(=O)c2cccc3ccccc23)c2cccc3c2n1[C@H](CN1CCOCC1)CO3` [Win-55212-2], the “Antinociception in the hot plate test” value (ICR mice [7]) was “induced”, the Catalepsy (ICR mice [7]) was “induced” and the “Hypothermia (rectal temperature)” value (ICR mice [7]) was “induced”.

With `CC(C)(C(=O)O)c1ccc(-c2ccccc2)c(F)c1` [Compound 4a, 2-(2-fluoro-[1,1′-biphenyl]-4-yl)-2-methylpropanoic acid] the inhibition at 25 µM ([8]; RAW264.7, at 25 μM compound) was 40%, the IC50 ([8]; conversion of 2-AG to PGE2-G/PGD2-G) was 5.2 µM and the inhibition at 10 µM (purified murine COX-2) was 5%. For the same compound, the IC50 (purified murine COX-2; murine COX-2 40 nM, 3 min preincubation, 2-AG 5 μM, 37° C., 30 s, mean ± SD, read-out: 2-AG IC50) was 1.1 µM.

For `CC(C)Cc1ccc([C@@H](C)C(=O)O)cc1` [Compound 7c, (R)-ibuprofen], the “Conversion to the (S)-enantiomer” value ([9]; DRG extracts, chiral HPLC) was “did not occur”.

For `C[C@@H](C(=O)O)c1ccc(-c2ccccc2)c(F)c1` [Compound 7a, (R)-flurbiprofen], the “Conversion to the (S)-enantiomer” value [9] is listed as “did not occur”, the concentration at 72 h ([10]; male, C57BL/6, mouse, plasma, intraperitoneal, 10 mg/kg i.p. at 0, 8, 24, 32, 48 and 56 hr, sixteen hr after the last injection) is listed as 20 µM and the IC50 (FAAH) is listed as over 1000 µM.

In the case of `O=C(O)Cc1ccc(-c2ccccc2)c(F)c1` [Compound 3a, 2-(2-fluoro-[1,1′-biphenyl]-4-yl)acetic acid], the inhibition at 5 µM ([8]; RAW264.7, at 5 μM compound) is reported as 60%, the Average plasma concentration ([10]; 10 mg/kg i.p. at 0, 8, 24, 32, 48 and 56 hr, sixteen hr after the last injection) is reported as “not detected” and the half-life ([10]; male, C57BL/6, mouse, plasma, intraperitoneal, 10 mg/kg, read-out: Half-life (t1/2) in mouse plasma) is reported as 2 to 3 h. For the same compound, the concentration at 72 h ([10]; single 10 mg/kg i.p. injection, 1 hr) was 68 µM, the concentration at 72 h ([10]; single 10 mg/kg i.p. injection, 2 hr) was 50 µM and the concentration at 72 h ([10]; single 10 mg/kg i.p. injection, 4 hr) was 6 µM. For the same compound, the inhibition at 10 µM (purified murine COX-2) was 7%.

Reference: patent US20150183737A1, “COMPOSITIONS AND METHODS FOR SUBSTRATE-SELECTIVE INHIBITION OF ENDOCANNABINOID OXYGENATION” (Vanderbilt University, priority 2012, published 2015)
